Where two headings read alike, the source gives them in different places.
Target: T1, recombinant human Tie-2 protein (Homo sapiens, UniProt Q02763)
T1 construct: purchased Thermo Fisher Scientific Inc. PV3628
Experiment: Z′-Lyte FRET enzymatic activity assay of Tie-2 kinase
Assay type: biochemical
Details: for Inhibition (%) @10 μg/ml / inhibition at 10 µg/mL: 10 μg/mL preliminary screening, Table S1; for inhibition at 5 µg/mL: 5 μg/mL, n ≥ 2, read-out: Kinase Inhibition (%) at 5 μg/mL (± SD); for Tie-2 inhibitory activity in words (active / inactive): VS candidates of Strategy 1, preliminary screening at 10 μg/mL

[1] = Z′-Lyte assay, 100 μM ATP, n ≥ 2 per concentration, read-out: IC50 (half-maximal inhibitory concentration), Tie-2 kinase
[2] = in the dose-response figure, read-out: IC50 (dose-dependent inhibitory effect), Tie-2 kinase (converted)

T1 sequence (Q02763 23-1124): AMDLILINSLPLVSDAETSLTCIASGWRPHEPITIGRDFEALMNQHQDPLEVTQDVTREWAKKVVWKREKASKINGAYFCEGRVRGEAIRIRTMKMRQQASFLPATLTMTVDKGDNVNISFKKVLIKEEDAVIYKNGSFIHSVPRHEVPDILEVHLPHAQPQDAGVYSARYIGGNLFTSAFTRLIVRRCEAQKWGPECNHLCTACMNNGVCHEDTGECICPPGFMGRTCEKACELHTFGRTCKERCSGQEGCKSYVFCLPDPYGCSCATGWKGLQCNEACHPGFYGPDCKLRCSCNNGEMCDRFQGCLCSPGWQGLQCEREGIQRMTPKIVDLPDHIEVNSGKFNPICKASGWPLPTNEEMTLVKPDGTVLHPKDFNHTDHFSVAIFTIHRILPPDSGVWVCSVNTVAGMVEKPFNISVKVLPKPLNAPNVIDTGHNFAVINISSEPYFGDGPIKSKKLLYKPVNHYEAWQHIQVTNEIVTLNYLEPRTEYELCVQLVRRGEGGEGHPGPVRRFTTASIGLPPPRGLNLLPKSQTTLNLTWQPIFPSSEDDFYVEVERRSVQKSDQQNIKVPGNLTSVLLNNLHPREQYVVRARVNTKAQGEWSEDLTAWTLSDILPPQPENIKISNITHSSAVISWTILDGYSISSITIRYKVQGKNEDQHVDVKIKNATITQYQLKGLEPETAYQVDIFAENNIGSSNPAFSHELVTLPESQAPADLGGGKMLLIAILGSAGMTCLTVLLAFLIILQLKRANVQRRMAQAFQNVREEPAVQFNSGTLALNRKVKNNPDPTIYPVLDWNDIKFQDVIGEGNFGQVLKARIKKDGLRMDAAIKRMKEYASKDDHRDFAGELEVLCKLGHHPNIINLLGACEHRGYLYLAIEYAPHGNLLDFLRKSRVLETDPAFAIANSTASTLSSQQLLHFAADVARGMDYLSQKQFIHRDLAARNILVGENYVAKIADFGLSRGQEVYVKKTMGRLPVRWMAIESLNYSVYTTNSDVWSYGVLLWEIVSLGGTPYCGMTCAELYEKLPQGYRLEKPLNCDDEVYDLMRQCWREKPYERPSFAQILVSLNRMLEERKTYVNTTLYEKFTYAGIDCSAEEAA
Method: In order to assess the biological inhibitory activity of the VS compounds, Z’-Lyte enzymatic activity assay based on FRET (Fluorescence Resonance Energy Transfer) technology was developed as described above. […] At first, all the compounds obtained from both filtering strategies were preliminary screened for their ability to inhibit Tie-2 kinase activity at the concentration of 10 μg/mL.
The Tie-2 kinase inhibitor (CAS#: 948557-43-5, purity ≥ 97%) was purchased from Merck Calbiochem (Darmstadt, Germany) and used as a positive control inhibitor in bioassays[40]. […] All the purchased screening compounds were firstly dissolved in dimethyl sulfoxide (DMSO) at a stock concentration of 5 mg/ml. The final working concentration of DMSO is less than 1%.
Compounds were tested for their ability to inhibit Tie-2 kinase activity using Z′-Lyte® kinase assay kit (ser/thr 5 peptide) with NUNC 384-well plate. In the first step, the test compounds and ATP solution were firstly prepared at 4 × desired concentration. The mixture of recombinant human Tie-2 protein and non-phosphorylated peptide at 2 × desired concentration was prepared in kinase reaction buffer A consisting of 50 mM HEPES (pH 7.5), 0.01% BRIJ-35, 10 mM MgCl2, 4 mM MnCl2, 1 mM EGTA and 2 mM DTT. Reactions were then carried out in a solution containing 2.5 μL test compounds, 5 μL Tie-2/Tyr 05 peptide mixture (10 ng Tie-2 and 2 μM Tyr 05 peptide) and 2.5 μL ATP (100 μM). Then, the assay plate was shaken for 30 seconds on a plate shaker, and incubated for 1 hour at room temperature (20~25 °C). After sufficient kinase reactions, 5 μL development reagent A was added to each well, and the plate was incubated for another hour. Finally, 5 μL stop reagent was added to terminate the reactions, and the coumarin and fluorescein emission signals (excitation: 400 nm; emission: 445 and 520 nm, respectively) were measured on a fluorescence plate reader (BioTek Synergy 4).

| Compound | Inhibition (%) @10 μg/ml | IC50 [1] | also measured |
| --- | --- | --- | --- |
| O=C(O)CC1SC(=NN=Cc2ccc(OC(=O)c3cccc4ccccc34)cc2)NC1=O (racemic) [TP-C2-19] | -280.42±23.11% | – | – |
| Cc1ccc2nc(-c3ccccn3)cc(C(=O)NC3CCCc4ccccc43)c2c1 (stereo not drawn) [TP-C2-37] | 80.89±0.31% | 10.8 ± 0.83 µM | – |
| Fc1ccc(C2CC(c3cccs3)=NN2C(=S)NCCc2ccccc2)cc1 (racemic) [TP-C1-39] | 56.09±2.14% | – | – |
| Cc1cccc(C(=O)Nc2ccc(NC(=S)NC(=O)c3ccccc3Cl)cc2)c1 [TP-C3-45] | – | 2.41 µM | inhibition at 5 µg/mL: 49.3 ± 0.95% |
| COc1cc(C(=O)n2c(SCc3ccc(F)cc3)nc3ccccc32)cc(OC)c1OC [TP-C1-22] | -46.75±1.97% | – | – |
| O=C(Nc1ccccc1C(=O)NCc1cccnc1)c1cccc(F)c1 [TP-C2-55] | 81.27±3.01% | 8.21 ± 0.46 µM | – |
| Cc1cc(S(=O)(=O)Nc2ccc(F)cc2)ccc1OCC(=O)NCc1cccnc1 [TP-C2-53] | 77.43±0.89% | – | – |
| COCCCN1C(=O)C(O)=C(C(=O)c2ccc(Cl)cc2)C1c1ccc(O)cc1 (stereo not drawn) [TP-C1-26] | 7.19±0.3% | – | – |
| c1ccc(-c2nnc3n2N=C(c2c[nH]c4ccccc24)CS3)cc1 [TP-C1-50] | 61.04±3.33% | – | – |
| O=C(NCCc1cccc2ccccc12)C1CCCN1S(=O)(=O)c1ccc2ccccc2c1 (stereo not drawn) [TP-C1-29] | 39.83±5.94% | – | – |
| NC(=O)c1ccccc1NC(=O)CSc1nc(O)c(-c2ccccc2)c(=O)[nH]1 [TP-C2-41] | 90.36±1.3% | 6.12 ± 0.81 µM | – |
| O=C(OCC(=O)c1ccccc1Cl)c1ccc2c(c1)-c1ccccc1C2=O [TP-C2-21] | 75.19±7.09% | – | – |
| O=C(c1n[nH]c(=O)c2ccccc12)N1CCOC(COc2ccccc2)C1 (stereo not drawn) [TP-C2-59] | 74.19±1.14% | – | – |
| COc1cc(NC(=S)NC(=O)c2ccccc2OC)ccc1NC(=O)c1cc2ccccc2o1 [TP-C2-11] | 87.61±5.43% | 15.1 ± 0.92 µM | – |
| CC1=C(C(=O)Nc2ccc(C)cc2C)C(c2ccc(O)cc2)NC(=S)N1 (stereo not drawn) [TP-C1-21] | 58.96±3.25% | – | – |
| CCN1C(=O)NC(c2ccc(Cl)cc2)C(C(=O)OCCc2ccccc2)=C1C (racemic) [TP-C2-3] | 56.11±13.15% | – | – |
| O=C(CSc1nnc(-c2cccnc2)n1-c1ccccc1)c1ccc(F)cc1 [TP-C1-28] | 71.3±0.7% | 43.6 ± 2.32 µM | – |
| O=C(NCc1ccco1)c1cc(-c2ccccn2)nc2ccc(Cl)cc12 [TP-C2-35] | 87.59±3.7% | 4.59 ± 0.29 µM | – |
| CCc1ccc(C(=O)NC(=S)Nc2ccc(NC(=O)c3cccc(Cl)c3)cc2)cc1 [TP-C3-43] | – | 1.64 µM | inhibition at 5 µg/mL: 77.74 ± 0.42% |
| O=C(Nc1ccc2c(c1)OCCO2)C1CC(=O)N(CCc2c[nH]c3ccc(F)cc23)C1 (stereo not drawn) [TP-C2-57] | 48.64±1.91% | – | – |
| CCCOc1ccc(C(=O)NC(=S)Nc2ccc(NC(=O)c3ccc(C(C)(C)C)cc3)cc2)cc1 [TP-C3-52] | – | 36.7 µM | inhibition at 5 µg/mL: 7.88 ± 0.59% |
| O=c1cc(-c2ccccc2)c2ccc(OCc3cccc(C(F)(F)F)c3)cc2o1 [TP-C1-18] | 39.7±2.94% | – | Tie-2 inhibitory activity in words (active / inactive): inactive |

| Compound | Inhibition (%) @10 μg/ml | IC50 [1] | also measured |
| --- | --- | --- | --- |
| Cc1cc(NC(=S)NC(=O)c2ccc(C)c([N+](=O)[O-])c2)ccc1NC(=O)c1ccccc1 [TP-C3-26] | – | 48.6 µM | inhibition at 5 µg/mL: 23.11 ± 0.13% |
| O=C(Nc1ccc(NC(=S)NC(=O)c2cccc3ccccc23)cc1)c1cccs1 [TP-C2-15] | 72.64±14.95% | – | – |
| CCc1ccc(C(=O)NC(=S)Nc2ccc(NC(=O)c3ccc(Cl)cc3Cl)cc2)cc1 [TP-C3-55] | – | 3.47 µM | inhibition at 5 µg/mL: 60.22 ± 0.55% |
| CCOc1cc(CNCCc2ccc(S(N)(=O)=O)cc2)ccc1OCc1ccccc1.Cl [TP-C2-42] | 23.47±2.17% | – | – |
| Cc1cc(NC(=S)NC(=O)c2ccccc2C)ccc1NC(=O)c1ccccc1 [TP-C2-7] | 54.53±0.58% | – | – |
| Cc1c(C)n(Cc2ccccc2)c2ccc(C(=O)NNC(=S)NCC3CCCO3)cc12 (stereo not drawn) [TP-C1-41] | 32.86±3.03% | – | – |
| Cn1c(=O)[nH]c(=O)c2c1nc(NCCCO)n2CC(O)COc1ccccc1 (stereo not drawn) [TP-C2-2] | 51.41±2.9% | – | – |
| CC(C)(C)c1ccc(C(=O)Nc2ccc(NC(=S)NC(=O)c3ccccc3)cc2)cc1 [TP-C3-2] | – | 27.1 µM | inhibition at 5 µg/mL: 33.4 ± 1.74%; fold decrease in activity compared with compound TP-C3-3 (from IC50 values): ~ 10 fold |
| c1cncc(CN2CN(CC3CCCO3)c3nc4ccccc4n3C2)c1 (racemic) [TP-C1-56] | 29.83±0.28% | – | – |
| CC(=O)Nc1cccc(NC(=O)c2cc(-c3ccncc3)nc3ccc(Br)cc23)c1 [TP-C2-39] | 75.1±0.83% | – | – |
| COc1ccc(C2C(C(=O)c3cccs3)=C(O)C(=O)N2CCN(C)C)cc1OC (racemic) [TP-C2-17] | 66.32±3.22% | – | – |
| COc1ccc(C(=O)NC(=S)Nc2ccc(-c3nc4cc(C)c(C)cc4o3)cc2)cc1OC [TP-C2-8] | 68.53±6.25% | – | – |
| O=C1c2ccccc2C(=O)N1CCc1nn2c(-c3cccnc3)nnc2s1 [TP-C1-52] | – | 15.3 ± 0.68 µM | inhibition at 10 µg/mL: 101 ± 2.04%; fold decreased activity compared to TP-C1-17 and TP-C1-47 (from IC50 values): ~ 3 fold; IC50 [2]: 15.3 µM |
| O=C(NN=Cc1ccc(N2N=C(c3ccccc3)CC2c2ccccc2)cc1)c1ccncc1 (racemic) [TP-C1-6] | 16.08±16.2% | – | Tie-2 inhibitory activity in words (active / inactive): inactive |
| COc1ccc(C(CC(=O)c2ccccc2)CC(=O)c2ccccc2)cc1OC [TP-C2-23] | 47.13±8.4% | – | – |
| COc1cc(NC(=S)NC(=O)c2ccc(C)cc2C)ccc1NC(=O)c1ccccc1Cl [TP-C3-21] | – | 2.74 µM | inhibition at 5 µg/mL: 71.19 ± 0.29% |
| CC(=O)c1cccc(NC(=O)CSc2nnc(CSCc3ccccc3F)n2C)c1 [TP-C2-49] | 63.31±0.29% | – | – |
| O=C(NC(=S)Nc1ccc(NC(=O)c2ccc(Cl)cc2Cl)cc1)c1ccccc1 [TP-C3-1] | – | 1.85 µM | inhibition at 5 µg/mL: 63 ± 0.86% |
| COC(=O)c1ccc(C)c(NC(=O)c2cc(-c3ccccn3)nc3ccc(Br)cc23)c1 [TP-C2-33] | – | 3.31 ± 0.23 µM | inhibition at 10 µg/mL: 95.2 ± 1.81%; IC50 [2]: 3.32 µM |
| NS(=O)(=O)c1ccc(CCNC(=O)c2cc(-c3ccncc3)nc3ccc(Cl)cc23)cc1 [TP-C2-38] | 89.98±1.62% | 7.88 ± 0.35 µM | – |
| CC(=O)Oc1ccccc1NC(=O)c1ccc2c(c1)C(=O)N(CC1CCCO1)C2=O (stereo not drawn) [TP-C1-34] | 6.95±6.26% | – | – |

More lines, main results first:

| Inhibition (%) @10 μg/ml | IC50 [1] | Compound | also measured |
| --- | --- | --- | --- |
| 2.81±1.73% | – | O=c1[nH]c(-c2ccc(OCc3ccccc3F)cc2)nc2ccccc12 [TP-C1-40] | – |
| 64.42±0.23% | – | O=C(COc1ccc(S(=O)(=O)N2CCc3ccccc32)cc1)NCc1cccnc1 [TP-C2-52] | – |
| -27.08±4.67% | – | Cc1cc(C(=O)c2ccccc2)ccc1OC(=O)CN1C(=O)c2ccccc2C1=O [TP-C1-42] | – |
| 12.5±2.86% | – | O=C(CN(c1ccc2c(c1)OCCO2)S(=O)(=O)c1ccccc1)Nc1cccnc1 [TP-C1-38] | – |
| 3.6±13.1% | – | Cc1cccc(C(=O)Nc2ccc(-c3cc4ccccc4oc3=O)cc2)c1 [TP-C1-12] | – |
| 40.32±14.48% | – | Cc1ccccc1COc1ccc(-c2nnn(CC(=O)Nc3ccc4c(c3)OCO4)n2)cc1 [TP-C2-28] | – |
| 95.39±0.98% | 4.69 ± 0.37 µM | CC1=C(C(=O)Nc2ccc(C)cc2C)C(c2ccc(OCc3ccccc3)cc2)NC(=S)N1 (racemic) [TP-C2-40] | – |
| – | 28.2 µM | Cc1cc(NC(=S)NC(=O)c2ccc(Cl)c(Cl)c2)ccc1NC(=O)c1ccccc1 [TP-C3-29] | inhibition at 5 µg/mL: 57.95 ± 0.29% |
| 54.56±1.99% | – | COc1ccccc1C(=O)Nc1ccc(Oc2ccc3c(c2)C(=O)NC3=O)cc1 [TP-C1-51] | – |
| 85.54±0.14% | 14.6 ± 1.21 µM | Cc1ccc2nc(-c3ccc(NC(=S)NC(=O)c4oc5ccccc5c4C)cc3)oc2c1 [TP-C2-12] | – |
| 84.1±0.44% | 8.83 ± 0.58 µM | Cc1c(C(=O)NC(=S)Nc2ccc(-c3nc4ccccc4s3)cc2)oc2ccccc12 [TP-C2-16] | – |
| 9.52±4.54% | – | CCOC(=O)CNS(=O)(=O)c1cc(-c2nnc(Nc3cccc(C)c3)c3ccccc23)ccc1C [TP-C1-16] | – |
| 69.07±3.54% | – | COc1ccc(-c2cc(-c3ccccc3)c(C#N)c(S(=O)(=O)Cc3ccccc3)n2)cc1 [TP-C1-35] | – |
| 47.23±0.53% | – | COc1ccc(CNC(=O)CSc2nc3ccc(NC(=O)c4ccccc4C)cc3s2)cc1 [TP-C1-32] | – |
| 43.81±7.48% | – | CCc1cc2c(-c3ccccc3)cc(=O)oc2cc1OCC(=O)c1ccc(F)cc1 [TP-C2-18] | – |
| 55.28±4.04% | – | COc1cc2c(cc1OC)C(c1ccc(OCc3ccccc3)cc1)CC(=O)N2 (racemic) [TP-C2-27] | – |
| 83.25±0.08% | 17.5 ± 1.16 µM | Cc1ccc2nc(-c3ccc(NC(=S)NC(=O)COc4ccccc4C)cc3)sc2c1 [TP-C2-24] | – |
| 84.95±3.24% | 6.78 ± 0.36 µM | CC1(C)CC(=O)C(C(=S)Nc2ccccc2)=C(NCc2ccc3c(c2)OCO3)C1 [TP-C2-13] | – |
| 81.26±3.96% | 2.05 ± 0.11 µM | Cc1cc(NC(=S)NC(=O)c2ccc3c(c2)OCO3)ccc1NC(=O)c1ccccc1 [TP-C2-30] | – |
| 36.45±0.94% | – | Cc1ccccc1OCC(=O)OCC(=O)c1ccc(OCc2ccccc2)cc1 [TP-C2-20] | – |
| 61.34±20.45% | – | Cc1ccccc1C(=O)Nc1cccc(Oc2ccc3c(c2)C(=O)NC3=O)c1 [TP-C2-26] | – |
| 2.9±8.41% | – | CCCCc1ccc(NC(=S)C2=C(NCc3ccc4c(c3)OCO4)CC(C)(C)CC2=O)cc1 [TP-C1-31] | Tie-2 inhibitory activity in words (active / inactive): inactive |
| 49.69±0.95% | – | CCOc1ccc(CN(CCc2ccc3c(c2)OCO3)Cc2ccc(C(F)(F)F)cc2)cc1 [TP-C2-6] | – |
| – | 22.7 µM | CCCOc1cccc(C(=O)NC(=S)Nc2ccc(NC(=O)c3ccccc3)cc2)c1 [TP-C3-14] | inhibition at 5 µg/mL: 43 ± 1.08% |
